Data reported in patent publication US20230295087A1, “AGONISTS OF ROR GAMMAt” (BRISTOL-MYERS SQUIBB COMPANY, priority 2019, published 2023).

Each compound was assayed against T1, human RORgT (Homo sapiens, UniProt P51449) (assay: RORgT Gal4 Luciferase Reporter Gene Assay). Conditions: engineered Jurkat cells overexpressing RORgT (LBD or full length) fused with Gal4 Luc reporter; 18 hours at 37° C.; luminescence.
T1 construct: expressed in transfected cells
T1 sequence (P51449 267-516): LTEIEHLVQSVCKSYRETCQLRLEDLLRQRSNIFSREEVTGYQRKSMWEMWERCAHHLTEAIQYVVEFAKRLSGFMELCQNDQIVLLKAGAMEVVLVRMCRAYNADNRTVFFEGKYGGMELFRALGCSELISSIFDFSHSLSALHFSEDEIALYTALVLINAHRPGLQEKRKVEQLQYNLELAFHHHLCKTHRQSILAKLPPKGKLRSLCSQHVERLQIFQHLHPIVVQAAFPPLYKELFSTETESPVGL
Format: cell-based
Description: RORgT Gal4 Luciferase Reporter Gene Assay
25 µL of cryopreserved Jurkat cells over expressing ligand binding domain (LBD) of RORgT (aa267-516, NM_005060) and Gal4 Luc, or full length of human RORgT and Gal4 Luc, were plated in 384-well solid white cell culture plates (PerkinElmer 6007899), with a density of 10,000 cells/well in RPMI 1640 cell culture media (Gibco 11875-085). The media contained 0.1% BSA, 10 mM HEPES (Gibco 15360-080), […] Sodium Pyruvate (Gibco 11360-040), […] Hygromycin B (Invitrogen 10687-010), and […] Blasticidin (Invitrogen R210-01).
100 nL of compound at varying concentrations in 3-fold serial dilution, with final concentrations ranging from 40 µM to 0.67 nM, were added to the cells using Labcyte Echo 550. The compound and the cells were incubated for 18 hours at 37° C. in a cell culture incubator. Cells were then lysed with 15 uL of Steady-Glo Luciferase Assay reagent (Promega EZ550), followed by centrifuging the assay plates at 1500 RPM for 1 minute. Subsequently, the plates were read on the Envision (PerkinElmer). The inhibition of constitutive activity of RORgT achieved by graded concentrations of compound was calculated as a percentage of the luminescence signal window reduction over a control compound.

Which EC50 does the source give for O=C(C1CCC(B(O)O)CC1)N1CC[C@@]2(S(=O)(=O)c3ccc(F)cc3)c3ccc(OCc4c(F)cccc4C(F)(F)F)cc3CC[C@@H]12 (stereo partly drawn) [Example 13, (4-((3aR,9bR)-7-((2-fluoro-6-(trifluoromethyl)benzyl)oxy)-9b-((4-fluorophenyl)sulfonyl)-2,3,3a,4,5,9b-hexahydro-1H-benzo[e]indole-3-carbonyl)cyclohexyl)boronic acid] here?
Its EC50 is 1.5 nM.

O=C(C1CCC(B(O)O)CC1)N1CC[C@@]2(S(=O)(=O)c3ccc(F)cc3)c3ccc(OCc4c(F)cccc4C(F)(F)F)cc3CC[C@@H]12 (stereo partly drawn) [Example 14, (4-((3aR,9bR)-7-((2-fluoro-6-(trifluoromethyl)benzyl)oxy)-9b-((4-fluorophenyl)sulfonyl)-2,3,3a,4,5,9b-hexahydro-1H-benzo[e]indole-3-carbonyl)cyclohexyl)boronic acid] was tested. Which EC50 did it give?
The EC50 was 1.8 nM.

With O=C(CC1CCS(=O)(=O)C1)N1CC[C@@]2(S(=O)(=O)c3ccc(F)cc3)c3ccc(OCc4c(F)cccc4Cl)cc3CC[C@@H]12 (stereo partly drawn) [Example 15, 3-{2-[(3aR,9bR)-7-[(2-chloro-6-fluorophenyl)methoxy]-9b-(4-fluorobenzenesulfonyl)-1H,2H,3H,3aH,4H,5H,9bH-benzo[e]indol-3-yl]-2-oxoethyl}-1λ^6-thiolane-1,1-dione] as the compound, how does the EC50 read?
The EC50 was 3.8 nM.

How did the EC50 turn out when O=C(N1CC[C@@]2(S(=O)(=O)c3ccc(F)cc3)c3ccc(OCc4c(F)cccc4Cl)cc3CC[C@@H]12)C1(O)CCS(=O)(=O)CC1 [Example 16, 4-[(3aR,9bR)-7-[(2-chloro-6-fluorophenyl)methoxy]-9b-(4-fluorobenzenesulfonyl)-1H,2H,3H,3aH,4H,5H,9bH-benzo[e]indole-3-carbonyl]-4-hydroxy-1λ^6-thiane-1,1-dione] was run?
Its EC50 is 5.5 nM.

With O=C(C1CCS(=O)(=O)C1)N1CC[C@@]2(S(=O)(=O)c3ccc(F)cc3)c3ccc(OCc4c(F)cccc4Cl)cc3CC[C@@H]12 (stereo partly drawn) [Example 18, 3-[(3aR,9bR)-7-[(2-chloro-6-fluorophenyl)methoxy]-9b-(4-fluorobenzenesulfonyl)-1H,2H,3H,3aH,4H,5H,9bH-benzo[e]indole-3-carbonyl]-1λ^6-thiolane-1,1-dione] as the compound, how does the EC50 read?
The EC50 was 6 nM.

Which EC50 does the source give for CC1(C(=O)N2CC[C@@]3(S(=O)(=O)c4ccc(F)cc4)c4ccc(OCc5c(F)cccc5C(F)(F)F)cc4CC[C@@H]23)CCS(=O)(=O)CC1 [Example 19] here?
The EC50 was 14 nM.

Which EC50 does the source give for O=C([C@@H](O)C(F)(F)F)N1CC[C@@]2(S(=O)(=O)c3ccc(F)cc3)c3ccc(OCc4c(F)cccc4C(F)(F)F)cc3CC[C@@H]12 [Example 20, (2R)-1-[(3aR,9bR)-7-{[2-fluoro-6-(trifluoromethyl)phenyl]methoxy} -9b-(4-fluorobenzenesulfonyl)-1H,2H,3H,3aH,4H,5H,9bH-benzo[e]indol-3-yl]-3,3,3-trifluoro-2-hydroxypropan-1-one] here?
The EC50 was 42 nM.

For C[C@]1(C(=O)O)CC[C@H](C(=O)N2CC[C@@]3(S(=O)(=O)c4ccc(F)cc4)c4ccc(OCc5c(F)cccc5Cl)cc4CC[C@@H]23)CC1 [Example 21, (1r,4r)-4-[(3aR,9bR)-7-[(2-chloro-6-fluorophenyl)methoxy]-9b-(4-fluorobenzenesulfonyl)-1H,2H,3H,3aH,4H,5H,9bH-benzo[e]indole-3-carbonyl]-1-methylcyclohexane-1-carboxylic acid], which EC50 is on record?
The EC50 was 10 nM.

How did the EC50 turn out when C[C@@H]1C[C@@H](C(=O)O)CC[C@@H]1C(=O)N1CC[C@@]2(S(=O)(=O)c3ccc(F)cc3)c3ccc(OCc4c(F)cccc4Cl)cc3CC[C@@H]12 [Example 22, (1S,3R,4S)-4-[(3aR,9bR)-7-[(2-chloro-6-fluorophenyl)methoxy]-9b-(4-fluorobenzenesulfonyl)-1H,2H,3H,3aH,4H,5H9bH-benzo[e]indole-3-carbonyl]-3-methylcyclohexane-1-carboxylic acid] was run?
The EC50 was 17 nM.

With O=C(O)[C@H]1CC[C@](O)(C(=O)N2CC[C@@]3(S(=O)(=O)c4ccc(F)cc4)c4ccc(OCc5c(F)cccc5Cl)cc4CC[C@@H]23)CC1 [Example 23, (1s,4s)-4-[(3aR,9bR)-7-[(2-chloro-6-fluorophenyl)methoxy]-9b-(4-fluorobenzenesulfonyl)-1H,2H,3H,3aH,4H,5H,9bH-benzo[e]indole-3-carbonyl]-4-hydroxycyclohexane-1-carboxylic acid] as the compound, how does the EC50 read?
The EC50 was 55 nM.

With C[C@]1(C(=O)O)CC[C@H](C(=O)N2CC[C@@]3(S(=O)(=O)c4ccc(F)cc4)c4ccc(OCc5c(F)cccc5C(F)(F)F)cc4CC[C@@H]23)CC1 [Example 25, (1r,4r)-4-[(3aR,9bR)-7-{[2-fluoro-6-(trifluoromethyl)phenyl]methoxy}-9b-(4-fluorobenzenesulfonyl)-1H,2H,3H,3aH,4H,5H,9bH-benzo[e]indole-3-carbonyl]-1-methylcyclohexane-1-carboxylic acid] as the compound, how does the EC50 read?
The EC50 was 20 nM.

For C[C@@H]1C[C@@H](C(=O)O)CC[C@@H]1C(=O)N1CC[C@@]2(S(=O)(=O)c3ccc(F)cc3)c3ccc(OCc4c(F)cccc4C(F)(F)F)cc3CC[C@@H]12 [Example 26, (1S,3R,4S)-4-[(3aR,9bR)-7-{[2-fluoro-6-(trifluoromethyl)phenyl]methoxy}-9b-(4-fluorobenzenesulfonyl)-1H,2H,3H,3aH,4H,5H,9bH-benzo[e]indole-3-carbonyl]-3-methylcyclohexane-1-carboxylic acid], which EC50 is on record?
The EC50 was 27 nM.

For O=C(O)[C@H]1CC[C@](O)(C(=O)N2CC[C@@]3(S(=O)(=O)c4ccc(F)cc4)c4ccc(OCc5c(F)cccc5C(F)(F)F)cc4CC[C@@H]23)CC1 [Example 27, (1 s,4 s)-4-[(3aR,9bR)-7-{ [2-fluoro-6-(trifluoromethyl)phenyl]methoxy} -9b-(4-fluorobenzenesulfonyl)-1H,2H,3H,3aH,4H,5H,9bH-benzo[e]indole-3-carbonyl] -4-hydroxycyclohexane-1-carboxylic acid], which EC50 is on record?
Its EC50 is 99 nM.

With O=C1CC[C@@H](C(=O)N2CC[C@@]3(S(=O)(=O)c4ccc(F)cc4)c4ccc(OCc5c(F)cccc5C(F)(F)F)cc4CC[C@@H]23)N1Cc1ccc(F)cc1 [Example 28, (5S)-5-[(3aR,9bR)-7-{[2-fluoro-6-(trifluoromethyl)phenyl]methoxy} -9b-(4-fluorobenzenesulfonyl)-1H,2H,3H,3aH,4H,5H,9bH-benzo[e]indole-3-carbonyl]-1-[(4-fluorophenyl)methyl]pyrrolidin-2-one] as the compound, how does the EC50 read?
Its EC50 is 8.2 nM.

With CC(C#N)CN1C(=O)CC[C@H]1C(=O)N1CC[C@@]2(S(=O)(=O)c3ccc(F)cc3)c3ccc(OCc4c(F)cccc4C(F)(F)F)cc3CC[C@@H]12 (stereo partly drawn) [Example 29, 3-[(2S)-2-[(3aR,9bR)-7-{[2-fluoro-6-(trifluoromethyl)phenyl]methoxy} -9b-(4-fluorobenzenesulfonyl)-1H,2H,3H,3aH,4H,5H9bH-benzo[e]indole-3-carbonyl]-5-oxopyrrolidin-1-yl]-2-methylpropanenitrile] as the compound, how does the EC50 read?
The EC50 was 3.6 nM.

How did the EC50 turn out when CN1C[C@@H](C(=O)N2CC[C@@]3(S(=O)(=O)c4ccc(F)cc4)c4ccc(OCc5c(F)cccc5C(F)(F)F)cc4CC[C@@H]23)NC1=O [Example 30, (4S)-4-[(3aR,9bR)-7-{[2-fluoro-6-(trifluoromethyl)phenyl]methoxy} -9b-(4-fluorobenzenesulfonyl)-1H,2H,3H,3aH,4H,5H,9bH-benzo[e]indole-3-carbonyl]-1-methylimidazolidin-2-one] was run?
The EC50 was 3.9 nM.

With O=C(C1CCS(=O)(=O)CC1)N1CC[C@@]2(S(=O)(=O)c3ccc(F)cc3)c3ccc(Cc4ccccc4)cc3CC[C@@H]12 [Example 31, 4-[(3aR,9bR)-7-benzyl-9b-(4-fluorobenzenesulfonyl)-1H,2H,3H,3aH,4H,5H,9bH-benzo[e]indole-3-carbonyl]-1λ^6-thiane-1,1-dione] as the compound, how does the EC50 read?
The EC50 was 1.6 nM.
